Test results as given in publication PMC9402538, “Rational design of a sensitivity-enhanced tracer for discovering efficient APC–Asef inhibitors” (Nature Communications, 2022).
Read-outs that look alike come from different tables or passages of the source. Where a SMILES comes first, the peptide text is derived from it. [ ]: non-standard residue; d: D form. The star is where a group is joined. Cyclohexanecarbonyl = O=C(C1CCCCC1)*; Cyclopentanecarbonyl = O=C(C1CCCC1)*; Benzoyl(4-OMe) = COc1ccc(C(=O)*)cc1; Benzoyl(4-Me) = Cc1ccc(C(=O)*)cc1; Ala(cPr) = N[C@@H](CC1CC1)C(=O)O; Oxazole2carbonyl = O=C(c1ncco1)*; Cha = N[C@@H](CC1CCCCC1)C(=O)O; Isonicotinoyl = O=C(c1ccncc1)*; hLeu = CC(C)CC[C@H](N)C(=O)O; Nicotinoyl = O=C(c1cccnc1)*; 2Furoyl = O=C(c1ccco1)*; Acryloyl = C=CC(=O)*; X3 = O=C(c1ccncn1)*; Mpa = O=C(O)CCS

Target: T1, APC (303–739) (Homo sapiens, UniProt P25054)
T1 sequence (P25054 303-739): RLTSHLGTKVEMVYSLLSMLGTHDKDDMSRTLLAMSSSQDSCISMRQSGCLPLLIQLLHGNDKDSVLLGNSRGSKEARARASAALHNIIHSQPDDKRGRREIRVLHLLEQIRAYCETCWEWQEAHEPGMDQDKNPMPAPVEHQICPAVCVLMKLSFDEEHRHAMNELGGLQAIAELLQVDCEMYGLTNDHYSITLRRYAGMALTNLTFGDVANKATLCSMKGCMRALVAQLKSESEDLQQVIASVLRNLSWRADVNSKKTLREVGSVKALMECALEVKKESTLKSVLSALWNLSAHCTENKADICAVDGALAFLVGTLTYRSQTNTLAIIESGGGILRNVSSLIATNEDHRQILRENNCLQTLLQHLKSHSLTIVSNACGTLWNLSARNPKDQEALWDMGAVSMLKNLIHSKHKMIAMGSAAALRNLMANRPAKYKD
Assay: FP competitive assay using tracer 7
Type: binding
Procedure: FITC-labeled tracer peptides were obtained from Changzhou Kanglong Biotech Ltd. (Changzhou, Jiangsu, China). […]. The FP signal changes upon tracer binding were measured after 1.5 h of incubation using a Synergy neo microplate reader (BioTek Instruments, Inc.) and plotted against the protein concentration. The corresponding EC50 values were generated by fitting the curves with a nonlinear regression model. […]. To make a working solution, APC (303–739) was diluted in FP buffer (50 mM HEPES, pH 7.5, 300 mM NaCl, 1 mM EDTA, 1 mM DTT). The diluted APC protein (91 μL) was combined with a serial dilution of peptides (4 μL) and incubated at room temperature for 1 h, followed by the addition of 5 μL of 400 nM tracer 7. The FP signals were measured after 1.5 h of incubation at room temperature using a Synergy neo microplate reader. Three controls were included on each plate, i.e., blank (without protein and tracer), 100% inhibition (free tracer only), and 0% inhibition (protein/tracer complex only) controls. All experiments were performed in triplicate. The IC50 values of peptides were calculated by nonlinear regression analysis using GraphPad Prism 7.0 software.

[1] = Supplementary Table 4, read-out: IC50, Tracer 7
[2] = Repeat 1, Table 3 source data, read-out: IC50(μM) Repeat 1
[3] = Repeat 2, Table 3 source data, read-out: IC50(μM) Repeat 2
[4] = Repeat 3, Table 3 source data, read-out: IC50(μM) Repeat 3
[5] = mean of 3 repeats, Table 3 source data, read-out: IC50(μM) mean
[6] = tracer 7, mean of three repeats, read-out: IC50 mean
[7] = tracer 7, read-out: IC50 Repeat 1
[8] = tracer 7, read-out: IC50 Repeat 2
[9] = tracer 7, read-out: IC50 Repeat 3

Row | IC50 [1] | IC50 [2] | IC50 [3] | IC50 [4] | IC50 [5] | IC50 [6] | IC50 [7] | IC50 [8] | IC50 [9] | Structure (SMILES)
1 | 0.86 ± 0.03 µM | – | – | – | – | – | – | – | – | CC(C)C[C@H](NC(=O)[C@H](CO)NC(=O)[C@H](CCC(=O)O)NC(=O)CNC(=O)[C@H](C)NC(=O)c1ncco1)C(=O)N[C@@H](Cc1ccc(O)cc1)C(=O)N[C@@H](CCC(=O)O)C(N)=O [MAI-455] (Oxazole2carbonyl-AGESLYE-NH2)
2 | 0.22 ± 0.01 µM | – | – | – | – | – | – | – | – | CC(C)C[C@H](NC(=O)[C@H](CO)NC(=O)[C@H](CCC(=O)O)NC(=O)CNC(=O)[C@H](C)NC(=O)c1ccncn1)C(=O)N[C@@H](Cc1ccc(O)cc1)C(=O)N[C@@H](CCC(=O)O)C(N)=O [MAI-464] (X3-AGESLYE-NH2)
3 | – | 29.9 µM | 19.1 µM | 22 µM | 23.7 µM | – | – | – | – | C=CC(=O)N[C@@H](C)C(=O)NCC(=O)N[C@@H](CCC(=O)O)C(=O)N[C@@H](CO)C(=O)N[C@@H](CC(C)C)C(=O)N[C@@H](Cc1ccc(O)cc1)C(=O)N[C@@H](CCC(=O)O)C(N)=O [MAI-501] (Acryloyl-AGESLYE-NH2)
4 | – | 2.46 µM | 1.52 µM | 2.21 µM | 2.06 µM | – | – | – | – | CC(C)C[C@H](NC(=O)[C@H](CO)NC(=O)[C@H](CCC(=O)O)NC(=O)CNC(=O)[C@H](C)NC(=O)CCS)C(=O)N[C@@H](Cc1ccc(O)cc1)C(=O)N[C@@H](CCC(=O)O)C(N)=O [MAI-502] ([Mpa]AGESLYE-NH2)
5 | – | 7.09 µM | 5.22 µM | 5.07 µM | 5.79 µM | – | – | – | – | CC(C)C[C@H](NC(=O)[C@H](CO)NC(=O)[C@H](CCC(=O)O)NC(=O)CNC(=O)[C@H](C)NC(=O)C1CCCC1)C(=O)N[C@@H](Cc1ccc(O)cc1)C(=O)N[C@@H](CCC(=O)O)C(N)=O [MAI-503] (Cyclopentanecarbonyl-AGESLYE-NH2)
6 | – | 2.24 µM | 1.66 µM | 1.59 µM | 1.83 µM | – | – | – | – | CC(C)C[C@H](NC(=O)[C@H](CO)NC(=O)[C@H](CCC(=O)O)NC(=O)CNC(=O)[C@H](C)NC(=O)C1CCCCC1)C(=O)N[C@@H](Cc1ccc(O)cc1)C(=O)N[C@@H](CCC(=O)O)C(N)=O [MAI-504] (Cyclohexanecarbonyl-AGESLYE-NH2)
7 | – | 0.323 µM | 0.419 µM | 0.457 µM | 0.4 µM | – | – | – | – | CC(C)C[C@H](NC(=O)[C@H](CO)NC(=O)[C@H](CCC(=O)O)NC(=O)CNC(=O)[C@H](C)NC(=O)c1ccco1)C(=O)N[C@@H](Cc1ccc(O)cc1)C(=O)N[C@@H](CCC(=O)O)C(N)=O [MAI-506] (2Furoyl-AGESLYE-NH2)
8 | – | 0.234 µM | 0.331 µM | 0.318 µM | 0.294 µM | – | – | – | – | CC(C)C[C@H](NC(=O)[C@H](CO)NC(=O)[C@H](CCC(=O)O)NC(=O)CNC(=O)[C@H](C)NC(=O)c1cccnc1)C(=O)N[C@@H](Cc1ccc(O)cc1)C(=O)N[C@@H](CCC(=O)O)C(N)=O [MAI-513] (Nicotinoyl-AGESLYE-NH2)
9 | – | 0.116 µM | 0.128 µM | 0.0999 µM | 0.114 µM | – | – | – | – | CC(C)C[C@H](NC(=O)[C@H](CO)NC(=O)[C@H](CCC(=O)O)NC(=O)CNC(=O)[C@H](C)NC(=O)c1ccncc1)C(=O)N[C@@H](Cc1ccc(O)cc1)C(=O)N[C@@H](CCC(=O)O)C(N)=O [MAI-514] (Isonicotinoyl-AGESLYE-NH2)
10 | – | 0.261 µM | 0.204 µM | 0.254 µM | 0.239 µM | – | – | – | – | Cc1ccc(C(=O)N[C@@H](C)C(=O)NCC(=O)N[C@@H](CCC(=O)O)C(=O)N[C@@H](CO)C(=O)N[C@@H](CC(C)C)C(=O)N[C@@H](Cc2ccc(O)cc2)C(=O)N[C@@H](CCC(=O)O)C(N)=O)cc1 [MAI-515] ({Benzoyl(4-Me)}-AGESLYE-NH2)
11 | – | – | – | – | – | 0.0247 µM | 0.0255 µM | 0.0285 µM | 0.0202 µM | COc1ccc(C(=O)N[C@@H](C)C(=O)NCC(=O)N[C@@H](CCC(=O)O)C(=O)N[C@@H](CO)C(=O)N[C@@H](CCC(C)C)C(=O)N[C@@H](Cc2ccc(O)cc2)C(=O)N[C@@H](CCC(=O)O)C(N)=O)cc1 [MAI-517] ({Benzoyl(4-OMe)}-AGES[hLeu]YE-NH2)
12 | – | – | – | – | – | 0.0449 µM | 0.0454 µM | 0.047 µM | 0.0424 µM | COc1ccc(C(=O)N[C@@H](C)C(=O)NCC(=O)N[C@@H](CCC(=O)O)C(=O)N[C@@H](CO)C(=O)N[C@@H](CC2CC2)C(=O)N[C@@H](Cc2ccc(O)cc2)C(=O)N[C@@H](CCC(=O)O)C(N)=O)cc1 [MAI-518] ({Benzoyl(4-OMe)}-AGES[Ala(cPr)]YE-NH2)
13 | – | – | – | – | – | 0.0509 µM | 0.0544 µM | 0.0551 µM | 0.0432 µM | COc1ccc(C(=O)N[C@@H](C)C(=O)NCC(=O)N[C@@H](CCC(=O)O)C(=O)N[C@@H](CO)C(=O)N[C@@H](CC2CCCCC2)C(=O)N[C@@H](Cc2ccc(O)cc2)C(=O)N[C@@H](CCC(=O)O)C(N)=O)cc1 [MAI-520] ({Benzoyl(4-OMe)}-AGES[Cha]YE-NH2)
